Some test systems named below: SR; T47D; HT-29; MCF7; DU-145; MDA-MB-231; MOLT-4; OVCAR-3; 786-0; NCI-H522; SN12C; BT-549; UACC-257; COLO 205; HL-60; HOP-62; SF-268; IGROV-1; HCT-116; NCI/ADR-RES.
What all share (test): NCI-60 cell line screen, 48 h

Structures are written as SMILES.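 Each compound was tested at five concentrations against cells in 96-well plates for 48 hours. GI50 is the concentration that inhibits growth by half.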 Calls of active or inactive are those of the source. Rule as the data show it: active = GI50 up to about 1.1 µM and inactive = higher.

Take `N=C(N)NCCCS(=O)(=O)Nc1ccc(Nc2c3ccccc3nc3cc([N+](=O)[O-])ccc23)cc1`: the GI50 in the assay with SR was 5.42 µM (inactive); in the assay on T47D, 0.728 µM (active); with HT-29, 16.9 µM (inactive); with MCF7 it was 2.53 µM (inactive); in the assay on DU-145, 9.33 µM (inactive); with MDA-MB-231 it was 35.2 µM (inactive). Besides, the GI50 was 2.33 µM (inactive) in the assay on MOLT-4; 15.6 µM (inactive) in the assay with OVCAR-3; 19.2 µM (inactive) in the assay with 786-0; 7.06 µM (inactive) in the assay on NCI-H522; 4.83 µM (inactive) in the assay with SN12C; 27.2 µM (inactive) with BT-549. The GI50 was 22.5 µM (inactive) with UACC-257; 14.5 µM (inactive) in the assay on COLO 205; 22.3 µM (inactive) in the assay with HL-60; 14.5 µM (inactive) in the assay with HOP-62; 6.19 µM (inactive) in the assay on SF-268; 18.4 µM (inactive) in the assay with IGROV-1. Also, the GI50 was 16.5 µM (inactive) with HCT-116 and 19.6 µM (inactive) in the assay with NCI/ADR-RES.

The values are drawn from ChEMBL document CHEMBL1201862, “PubChem BioAssay data set” (2004).
